Experimental findings from US7900639B2, “Reconstituted tobaccos containing additive materials” (R. J. Reynolds Tobacco Company, priority 2003, dated 2011) are described below.

The test system of one data set is bacteria. The data set is described as follows: Extracts tested for bacterial growth. The following applies: test extract versus control extract without additive.
The conditions of data set [1]: room temperature.
Experimental: The tobacco blend is extracted batch wise at about 130° F. using about 10 to about 15 parts tap water for each part tobacco material. Aqueous tobacco extract is separated from the water insoluble pulp using a centrifuge. The aqueous extract so provided has a soluble solids content of about 5%. The resulting extract is concentrated to a soluble solids content of about 22% to about 28% using a wiped film evaporator. The prepared extract is divided into two portions. To one portion, d-, l-alpha tocopherol is contacted with the resulting mixture (the test extract). […] In the other portion, no d-, l-alpha tocopherol is added, and as such a control extract is provided.
The concentrated liquid tobacco extracts with and without added d-, l-alpha tocopherol mixture are vigorously mixed or homogenized and allowed to set at room temperature conditions for five days.

Structures are written as SMILES.

As to `Cc1c(C)c2c(c(C)c1O)CCC(C)(CCCC(C)CCCC(C)CCCC(C)C)O2` (stereo not drawn) [d-, l-alpha tocopherol], the “bacteria activity in the extract” value in the data set on bacteria was “significantly reduce”. In addition, the “condition of aqueous tobacco extract containing the additive on storage” value in data set [1] (approximately 4% d-, l-alpha tocopherol on dried solids, five days, control began to ferment within two days) is on record as “remained unchanged”. Also, the “separation of the additive in the tobacco extract” value in data set [1] (emulsified in test extract, five day test period) is on record as “no separation”.
